Source: ChEMBL document CHEMBL3872239, “Studies relating to the synthesis, enzymatic reduction and cytotoxicity of a series of nitroaromatic prodrugs” (Bioorg Med Chem Lett, 2016)

How the values were obtained:
[1] = target: T1, NAD(P)H dehydrogenase [quinone] 1 (Homo sapiens, UniProt P15559); experiment: Prodrug activation assessed as human NQO1-mediated compound reduction by measuring specific enzyme activity at 100 uM measured every 20 mins by HPLC based UV-Vis method
[2] = target: T1, NAD(P)H dehydrogenase [quinone] 1; experiment: Prodrug activation assessed as human NQO1-mediated compound reduction by measuring specific enzyme activity at 100 uM measured every 20 mins by HPLC based UV-Vis method relative to CB1954
[3] = Prodrug activation assessed as Escherichia coli NR-mediated compound reduction by measuring specific enzyme activity at 100 uM measured every 20 mins by HPLC based UV-Vis method
[4] = Prodrug activation assessed as Escherichia coli NR-mediated compound reduction by measuring specific enzyme activity at 100 uM measured every 20 mins by HPLC based UV-vis method relative to CB1954
[5] = Cytotoxicity against Chinese hamster F179 transformed cells assessed as reduction in cell viability after 3 days by SRB assay; type: toxicity, cell-based, Cricetulus griseus
[6] = Cytotoxicity against Chinese hamster DT7 cells expressing human NQO1 assessed as reduction in cell viability after 3 days by SRB assay; type: functional, cell-based, Cricetulus griseus
[7] = Cytotoxicity against Chinese hamster T116 cells expressing Escherichia coli Nitroreductase assessed as reduction in cell viability after 3 days by SRB assay; type: functional, Cricetulus griseus
[8] = Cytotoxicity against Chinese hamster 186/6 cells expressing rat NQO1 assessed as reduction in cell viability after 3 days by SRB assay; type: functional, cell-based, Cricetulus griseus
[9] = target: T1, NAD(P)H dehydrogenase [quinone] 1; experiment: Drug metabolism assessed as human NQO1-mediated compound reduction by measuring specific enzyme activity at 100 uM measured every 20 mins by HPLC based UV-Vis method; type: ADME
[10] = Drug metabolism assessed as Escherichia coli NR-mediated compound reduction by measuring specific enzyme activity at 100 uM measured every 20 mins by HPLC based UV-Vis method; type: ADME

T1 sequence (P15559 whole entry): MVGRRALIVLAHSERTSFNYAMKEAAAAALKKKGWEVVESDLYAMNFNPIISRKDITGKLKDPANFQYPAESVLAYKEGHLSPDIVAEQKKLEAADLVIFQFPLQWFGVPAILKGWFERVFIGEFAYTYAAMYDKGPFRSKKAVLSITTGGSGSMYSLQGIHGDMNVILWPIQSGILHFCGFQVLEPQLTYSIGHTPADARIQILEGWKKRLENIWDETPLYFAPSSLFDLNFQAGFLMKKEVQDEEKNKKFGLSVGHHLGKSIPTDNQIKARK

SMILES: O=[N+]([O-])c1ccc(N2Cc3ccccc3CC2CCl)cc1 (stereo unspecified)
- Activity [1]: < 0.0001 µmol/min/mg
- fold change (FC) [2]: < 0.01
- Activity [3]: < 0.01 µmol/min/mg
- fold change (FC) [4]: < 0.001
- IC50 [5]: 3.3 µM
- IC50 [6]: 2.8 µM
- IC50 [7]: 3.1 µM
- IC50 [8]: 2.9 µM

SMILES: O=[N+]([O-])c1ccc(N2Cc3ccccc3CC2CCl)c([N+](=O)[O-])c1 (stereo unspecified)
- Activity [1]: 0.0033 µmol/min/mg
- fold change (FC) [2]: 0.532
- Activity [3]: 0.254 µmol/min/mg
- fold change (FC) [4]: 0.137
- IC50 [5]: 49 µM
- IC50 [6]: 43.1 µM
- IC50 [7]: 1.2 µM
- IC50 [8]: 36.6 µM

SMILES: NC(=O)c1cc(N2CC2)c([N+](=O)[O-])cc1[N+](=O)[O-] [TRETAZICAR]
- IC50 [5]: 196 µM
- IC50 [6]: 1.5 µM
- IC50 [7]: 0.03 µM
- IC50 [8]: 0.05 µM
- Activity [9]: 0.0062 µmol/min/mg
- Activity [10]: 1.86 µmol/min/mg

SMILES: O=[N+]([O-])c1ccc(N2Cc3ccccc3CC2CCl)cc1C(F)(F)F (stereo unspecified)
- Activity [1]: 0.012 µmol/min/mg
- fold change (FC) [2]: 1.936
- Activity [3]: 0.106 µmol/min/mg
- fold change (FC) [4]: 0.057
- IC50 [5]: 7.3 µM
- IC50 [6]: 5.9 µM
- IC50 [7]: 2.9 µM
- IC50 [8]: 5.8 µM

SMILES: O=[N+]([O-])c1cc(C(F)(F)F)ccc1N1Cc2ccccc2CC1CCl (stereo unspecified)
- Activity [1]: 0.0177 µmol/min/mg
- fold change (FC) [2]: 2.855
- Activity [3]: < 0.01 µmol/min/mg
- fold change (FC) [4]: < 0.001
- IC50 [5]: 36.6 µM
- IC50 [6]: 31.2 µM
- IC50 [7]: 39.1 µM
- IC50 [8]: 34.4 µM

SMILES: O=[N+]([O-])c1ccc(N2Cc3ccccc3CC2CCl)c(C(F)(F)F)c1 (stereo unspecified)
- Activity [1]: 0.027 µmol/min/mg
- fold change (FC) [2]: 4.355
- Activity [3]: 0.166 µmol/min/mg
- fold change (FC) [4]: 0.089
- IC50 [5]: 37.8 µM
- IC50 [6]: 27.5 µM
- IC50 [7]: 3.1 µM
- IC50 [8]: 22.6 µM
